Experimental findings from paper PMC4725915, “Ruthenium(II) Complexes with 2-Phenylimidazo[4,5-f][1,10]phenanthroline Derivatives that Strongly Combat Cisplatin-Resistant Tumor Cells” (Scientific Reports, 2016) are described below.

Assay type in all cases: cell-based, human
Series [1] has as its system A549R cells. Briefly: Cell uptake study by ICP-MS. The following applies: A549R, 2.0 μM, 12 h. How it is done:
(§1) To understand the high sensitivity of cancer cells to Ru(II) complexes, the extent of cellular uptake was investigated with inductively coupled plasma mass spectrometry (ICP-MS) by treating the HeLa, A549, A549R and LO2 cell lines with 2.0 μM concentrations of the Ru(II) complexes and cisplatin for 12 h. […] In this study, the cellular uptake and lipophilicity were distinctly correlated and followed the order: 4 >3 >2 >1. Complex 4 had the best accumulation, but the amount of Ru in LO2 cells was far less than that in the three cancer lines, indicating selective accumulation and improved efficiency for treating cancer. Cisplatin was taken up more efficiently by the sensitive cell line (A549) than by the cisplatin-resistant cell line (A549R). […] However, less than 1.5% of the cellular platinum was accumulated in the mitochondrial fraction of the A549R cells. Therefore, complex 4 could function in a different manner than cisplatin in A549R cells, which would be an appropriate solution to combat cisplatin resistance in tumor cells.
The cells were plated at a density of 1 × 10^5 cells/mL in 10 mL of DMEM for 24 h at 37 °C under 5% CO2 and 20% O2, Ruthenium complexes (2.0 μM) and cisplatin were added to the culture medium and incubated for 12 h, and mixed with cold PBS and a trypsin-EDTA solution in a centrifuge tube for counting. Then, the nuclei and cytoplasm of the cells were extracted by using a Nuclear and Cytoplasmic Protein Extraction Kit (Life Technologies). The samples were digested in 20% HNO3 and 10% H2O2 at room temperature overnight. Each sample was then diluted with Milli-Q water to obtain 2% HNO3 sample solutions. Ruthenium contents were determined using inductively coupled plasma mass spectrometry (ICP-MS Thermo Elemental Co., Ltd.).

Series [2] relates to A549R cells. The experiment in a line: Real-time cell growth and proliferation assay (xCELLigence). Here is the method: In addition, a real-time cell growth and proliferation assay using an xCELLigence System was utilized to confirm the high toxicity of complex 4 on A549R cells. […] In contrast, A549R cells were killed by treatment with complex 4 in a concentration-dependent manner.
This experiment was performed using an xCELLigence RTCA DP system real time cell analyzer (Roche Diagnostics GmbH, Germany). In brief, 80 μL of cell culture media was added to each well of a 16-well plate (E-plate 16, Roche Diagnostics GmbH, Germany). The 16-well plates were then connected to the system and checked for suitable electrical contacts in the real time cell analyzer, and the background impedance was measured for 24 s. Meanwhile, the A549R cells were suspended in cell culture medium and adjusted to 5 × 10^4 cells/mL, and 100 μL of each cell suspension was added to each well of […]. Approximately 24 h after seeding, the A549R cells were in the logarithmic phase of growth, and a wide range of concentrations of complex 4 and cisplatin (100 μM) were added. The cells were automatically monitored every 15 min over 48 h by the xCELLigence system. Data were analyzed using RTCA software (version 1.2) that was supplied with the instrument.

For series [3], the system named is A549R cells. The experiment in a line: AO/EB staining apoptosis assay. The conditions noted are these: 0.50–2.0 μM. The text has this:
Cell apoptosis is a naturally occurring, programmed and targeted cellular death mechanism that is very complex and is regulated by some proteins. This process is also greatly affected by extrinsic conditions. Therefore, it is important to study the influence of drug-induced cellular apoptosis. Firstly, the induction of A549R cell apoptosis by complex 4 was investigated by apoptosis assays using AO/EB staining and fluorescence microscopy. […] Necrotic cells are stained in red but have nuclear morphologies that resemble those of viable cells.

Series [4] relates to A549R cells. Briefly: Subcellular distribution study by ICP-MS. The conditions noted are these: 2.0 μM, 12 h. Here is the method: as §1
A549R cells were plated at a density of 1 × 10^5 cells/mL in 10 mL of DMEM for 24 h at 37 °C under 5% CO2 and 20% O2. […] The ruthenium or platinum contents were determined using inductively coupled plasma mass spectrometry (ICP-MS Thermo Elemental Co., Ltd.).

In a further series the test system is TrxR. The experiment in a line: Western blot of TrxR expression in A549R cells. The following applies: different concentrations, 12 h. The text has this:
The elevated levels of TrxR in cancers, especially in non-small cell lung cancers, are responsible for drug resistance. The thioredoxin system has a significant influence on intracellular physiological processes, such as antioxidant defense, cell functions, cell apoptosis and cell proliferation. TrxR has previously been identified as a drug target. […] In addition, the expression levels of TrxR in A549R cells in response to the addition of complex 4 were also examined by Western blot analysis.
A549R cells were seeded into 10 cm tissue culture dishes (Corning), incubated for 24 h, and treated with complex 4 for 12 h. The cells were washed with ice-cold PBS and lysed by incubation in radio immune precipitation assay buffer (RIPA) and a protease inhibitor cocktail (Sigma) for 30 min on ice. The lysates were centrifuged at 15000 rpm for 15 min at 4 °C, and the protein concentrations were quantified by a BCA protein assay reagent kit (Sigma). The proteins were separated on precast NuPAGE 4% to 12% polyacrylamide gradient Bis–Tris gels (Invitrogen) under denaturing conditions, transferred to PVDF membranes (Invitrogen), and subjected to Western blot analyses. […] The bound immune complexes were detected using an ECL prime Western blot detection reagent (Amersham Inc., USA). […]

As to Ru(phen)(bzq)(tbtfpip)(PF6) [Complex 4], the “share of the compound taken up by A549R cells” value with A549R cells [1] is on record as “Approximately 8%”. Also, the results for the “effect on A549R cell proliferation (xCELLigence)” value with A549R cells [2] (0.5 μM) and in the series with A549R cells [2] (2.0 μM) were “began to die after a short delay” and “rapidly abolished cellular proliferation”, respectively. Also, the AO/EB staining result in the series with A549R cells [3] is “predominantly induced apoptosis”. Also, the “share of cellular metal accumulated in the mitochondrial fraction” value in the series with A549R cells [4] was “over 55%”. Moreover, the “expression levels of TrxR” value in the series on TrxR is on record as “downregulated”.
